The values below come from ChEMBL document CHEMBL2094260, “Malaria Box Tuberculosis Screening Data”.

The structures appear in SMILES notation. Converted amounts (≈) assume the structure as drawn.

The test system of data set [1] is Mycobacterium tuberculosis. Put plainly: MMV: CRC and MIC90 against Mtb (replicating). Format: functional.
The nature of data set [2]: MMV: Cytotoxicity CRC and LD50 against HepG2. Type of data set: toxicity, cell-based. As to conditions: human, HepG2 cells; read-out: LD50 (the source's name).
The subject of data set [3] is Mycobacterium tuberculosis. Put plainly: MMV: CRC and MIC90 against Mtb (non replicating). Format: functional.
The test system of data set [4] is Mycobacterium tuberculosis. Put plainly: MMV: Screen against Mtb, single point, replicating, at 25uM. Format: functional.
Data set [5] deals with Mycobacterium tuberculosis. Description: MMV: Screen against Mtb, single point, non replicating, at 25uM. Format: functional.

Usually MIC90 stands for the lowest concentration that inhibits either 90% of growth or 90% of the strains tested, depending on the study. High values mean lower susceptibility, low ones higher susceptibility. By inhibition is commonly meant the drop in the measured response relative to a control, in per cent. Regarding `COCCNCC(O)Cn1c2ccc(Cl)cc2c2cc(Cl)ccc21` (stereo not given), the results for the MIC90 in data set [1] and in data set [3] were 11.6 µM (≈ 4.26 µg/mL) and 56.1 µM (≈ 20.6 µg/mL), respectively. Also, the CC50 in data set [2] came out at 3.92 µM. The inhibition at 25 µM in data set [4] came out at 99.4%; in data set [5] it was 26.7%.
Taken in the same sequence, the figures for `O=C(NC1CCN(Cc2ccccc2)CC1)c1cc(-c2ccncc2)nc2ccc(Cl)cc12` were 32.5 µM (≈ 14.9 µg/mL), more than 100 µM, 7.1 µM, 66% and 20.6%.
The corresponding values for `Cc1cc(Nc2ccc(OCc3ccccc3)cc2)nc2cc(O)ccc12` are 19.9 µM (≈ 7.09 µg/mL), 50 µM (≈ 17.8 µg/mL), 8.16 µM, 99.8% and 10%.
Taken in the same sequence, the figures for `CC(C)(C)CC(C)(C)NCC(O)COc1ccc2c(c1)CCC2` (stereo not given) were 35.6 µM (≈ 11.4 µg/mL), more than 100 µM, 8.32 µM, 70.7% and -3.5%.
On to `CCOc1ccc2nc(C)cc(Nc3ccc(Br)cc3)c2c1`, for which the MIC90 in data set [1] was 18.7 µM (≈ 6.68 µg/mL); in data set [3] it was more than 100 µM. Further, the CC50 in data set [2] stood at 3.95 µM. Besides, the values for the inhibition at 25 µM in data set [4] and in data set [5] were 95.7% and 11.1%, respectively.
Taken in the same sequence, the figures for `COc1cccc(Nc2nc(NCCO)c3ccccc3n2)c1` were 27.3 µM (≈ 8.47 µg/mL), more than 100 µM, 26 µM, 81.8% and 14.8%.
`CSc1ccccc1C(=O)Nc1nc(-c2ccccn2)cs1`: the MIC90 in data set [1] was 51.2 µM (≈ 16.8 µg/mL); in data set [3], 79 µM (≈ 25.9 µg/mL). Moreover, the CC50 in data set [2] is 12.1 µM. Moreover, the results for the inhibition at 25 µM in data set [4] and in data set [5] were 68.2% and 66.8%, respectively.
Taken in the same sequence, the figures for `Cc1cc(C)c2nc(N3CCC(C(=O)NCCCN4CCC(N5CCCCC5)CC4)CC3)sc2c1` were 60.8 µM (≈ 30.3 µg/mL), more than 100 µM, 2.55 µM, 60.2% and 15.2%.
Taken in the same sequence, the figures for `COc1ccc(Nc2cc(C)nc(NCc3ccccc3)n2)cc1` were 18 µM (≈ 5.77 µg/mL), more than 100 µM, 6.9 µM, 95.5% and 22.6%.
Taken in the same sequence, the figures for `Cc1nc2ccccc2c(O)c1CC=C(Cl)Cl` were 14.3 µM (≈ 3.83 µg/mL), more than 100 µM, 98.8 µM, 91% and 0.782%.
For `Cc1cc(NCCN2CCCCC2)c2ccc3ccccc3c2n1`, the MIC90 in data set [1] was 39.1 µM (≈ 12.5 µg/mL); in data set [3], more than 100 µM. Besides, in data set [2], the CC50 worked out at 2.04 µM. In addition, the inhibition at 25 µM in data set [4] was found to be 71.1%; in data set [5] it was 15.5%.
Taken in the same sequence, the figures for `Cc1ccc(NC(=O)Nc2cccc(Cl)c2)cc1F` were 28.8 µM (≈ 8.03 µg/mL), more than 100 µM, 11.1 µM, 80.7% and 19.7%.
`COc1ccc(C2NCCc3c2[nH]c2ccccc32)cc1CN1CCN(c2ccc(F)cc2)CC1` (stereo not given): the MIC90 in data set [1] was 25.9 µM (≈ 12.2 µg/mL); in data set [3], more than 100 µM. The CC50 in data set [2] is 2.28 µM. The inhibition at 25 µM in data set [4] was 87.9%; in data set [5], 15.9%.
Taken in the same sequence, the figures for `N=c1n(CCN2CCCCC2)c2ccccc2n1CC(=O)c1ccc(Cl)c(Cl)c1` were 21.1 µM (≈ 9.1 µg/mL), more than 100 µM, 6.5 µM, 96.3% and 17.6%.
The corresponding values for `O=C(Nc1ccc(Br)cc1)Nc1cccc(Cl)c1` are 44.6 µM (≈ 14.5 µg/mL), more than 100 µM, 18.6 µM, 59.6% and 38.6%.
For `Cc1cc(N2CCCC2)nc(Nc2ccc(NC(=O)CCc3ccccc3)cc2)n1`, the values for the MIC90 in data set [1] and in data set [3] were 14 µM (≈ 5.62 µg/mL) and more than 100 µM, respectively. For the same compound, the CC50 in data set [2] was found to be 2.64 µM. The values for the inhibition at 25 µM in data set [4] and in data set [5] were 82.1% and 9.94%, respectively.
Taken in the same sequence, the figures for `CC(C)(C)CC(C)(C)NCC(O)COc1ccc(Cl)cc1Cl` (stereo not given) were 4.47 µM (≈ 1.56 µg/mL), 40.2 µM (≈ 14 µg/mL), 3.51 µM, 98.5% and 30.2%.
For `c1ccc(CNc2nc(Nc3ccccc3)nc3ccccc23)cc1`, the MIC90 in data set [1] was 7.46 µM (≈ 2.43 µg/mL); in data set [3] it was 39.4 µM (≈ 12.9 µg/mL). Moreover, the CC50 in data set [2] worked out at 4.16 µM. The figures for the inhibition at 25 µM in data set [4] and in data set [5] were 96.2% and 21.2%, respectively.
`Cc1ccc2cc3c(N)c4c(C)ccc(C)c4nc3nc2c1`: the MIC90 in data set [1] was 6.06 µM (≈ 1.74 µg/mL); in data set [3], more than 100 µM. Besides, in data set [2], the CC50 was 2.84 µM. For the same compound, the inhibition at 25 µM in data set [4] came out at 101%; in data set [5] it was 7.35%.
Consider `Brc1ccc(Nc2nc3ccccc3nc2Nc2ccc(Br)cc2)cc1`, for which the MIC90 in data set [1] is 3.73 µM (≈ 1.75 µg/mL); in data set [3], 11.5 µM (≈ 5.41 µg/mL). The CC50 in data set [2] came to 2.69 µM. The inhibition at 25 µM in data set [4] was 101%; in data set [5], 100%.
Taken in the same sequence, the figures for `CN1CCN(c2ccc(Nc3c4ccccc4nc4ccccc34)cc2)CC1` were 45.1 µM (≈ 16.6 µg/mL), 27.7 µM (≈ 10.2 µg/mL), 0.654 µM, 63.8% and 44.1%.
The corresponding values for `CCn1nc(-c2ccc(C(=O)OC)cc2)nc2c(=O)n(C)c(=O)nc1-2` are more than 100 µM, 33.6 µM (≈ 11.5 µg/mL), 1.36 µM, 55.9% and 65.1%.
Taken in the same sequence, the figures for `COc1ccc(C2c3ccc4ccccc4c3Oc3ncn(CCCN(C)C)c(=N)c32)cc1` (stereo not given) were 16.9 µM (≈ 7.45 µg/mL), more than 100 µM, 1.53 µM, 98.1% and 47.1%.
On to `COc1ccc(Nc2nc(NCc3ccccc3)c3ccccc3n2)cc1`, for which the values for the MIC90 in data set [1] and in data set [3] were 7.33 µM (≈ 2.61 µg/mL) and 48.7 µM (≈ 17.4 µg/mL), respectively. For the same compound, the CC50 in data set [2] amounted to 2.59 µM. The inhibition at 25 µM came to 98% in data set [4] and 53.9% in data set [5].
Taken in the same sequence, the figures for `OCCNc1nc(Nc2ccc(Cl)c(Cl)c2)nc2ccccc12` were 3.59 µM (≈ 1.25 µg/mL), 20.2 µM (≈ 7.05 µg/mL), 7.18 µM, 94% and 84.5%.
